Assay results: patent US20230085307A1, “PYRIDAZINONE COMPOUND AND HERBICIDE” (NISSAN CHEMICAL CORPORATION, priority 2019, published 2023)

Tests used:
late watergrass = experiment: Test Example 1: herbicidal activity, application before weed generation under submerged conditions (Table 16, symbol A); assay type: in vivo, late watergrass (Echinochloa oryzicola); details: 320 g/ha applied herbicide
Procedure, shortened: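 Submerged Wagner pots (alluvial soil, 4 cm water) sown with weed seeds and planted with 2.5-leaf rice seedlings; emulsifiable concentrate diluted in water applied to water surface on sowing day. Held in greenhouse at 25-30 °C; injury scored 0-5 by herbicidal rate after three weeks.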

Japanese bulrush = experiment: Test Example 2: herbicidal activity, application during weed generation under submerged conditions (Table 17, symbol B); assay type: in vivo, Japanese bulrush (Schoenoplectus juncoides); details: AAH 320 g/ha; application during weed generation, submerged conditions
Procedure, shortened: (§1)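 Herbicide emulsion, diluted with water to the chosen amount, is applied onto 4 cm floodwater over alluvial soil where the weeds were co-sown and raised at 25–30° C. Application timing: 1–2 leaves. Assessment: three weeks afterwards.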

oval-leafed pondweed = experiment: Test Example 2: herbicidal activity, application during weed generation under submerged conditions (Table 17, symbol C); assay type: in vivo, oval-leafed pondweed (Monochoria vaginalis); details: AAH 320 g/ha; application during weed generation, submerged conditions
Procedure, shortened: as §1

southern crabgrass [1] = experiment: Test Example 4: herbicidal effect by soil treatment (Table 19, symbol F); assay type: in vivo, southern crabgrass (Digitaria ciliaris); details: amount of applied herbicide 320 g/ha
Procedure, shortened: (§2)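 Herbicidal effect was rated 3 weeks after treatment, using the scoring criteria of an earlier test. The compound, formulated as an emulsion and diluted in water to a set herbicide amount, had been sprayed uniformly on soil over freshly sown seeds. Growth took place in a greenhouse at 25° C. to 30° C.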

green foxtail = experiment: Test Example 4: herbicidal effect by soil treatment (Table 19, symbol G); assay type: in vivo, green foxtail (Setaria viridis); details: amount of applied herbicide 320 g/ha
Procedure, shortened: as §2

blackgrass = experiment: Test Example 4: herbicidal effect by soil treatment (Table 19, symbol J); assay type: in vivo, blackgrass (Alopecurus myosuroides); details: amount of applied herbicide 320 g/ha
Procedure, shortened: as §2

Italian ryegrass [2] = experiment: Test Example 4: herbicidal effect by soil treatment (Table 19, symbol K); assay type: in vivo, Italian ryegrass (Lolium multiflorum); details: amount of applied herbicide 320 g/ha
Procedure, shortened: as §2

redroot pigweed [3] = experiment: Test Example 4: herbicidal effect by soil treatment (Table 19, symbol N); assay type: in vivo, redroot pigweed (Amaranthus retroflexus); details: amount of applied herbicide 320 g/ha
Procedure, shortened: as §2

chickweed = experiment: Test Example 4: herbicidal effect by soil treatment (Table 19, symbol P); assay type: in vivo, common chickweed (Stellaria media); details: amount of applied herbicide 320 g/ha
Procedure, shortened: as §2

persian speedwell [4] = experiment: Test Example 4: herbicidal effect by soil treatment (Table 19, symbol R); assay type: in vivo, Persian speedwell (Veronica persica); details: amount of applied herbicide 320 g/ha
Procedure, shortened: as §2

southern crabgrass [5] = experiment: Test Example 5: herbicidal effect by foliage application, plastic box (Table 20, symbol F); assay type: in vivo, southern crabgrass (Digitaria ciliaris); details: foliage application, three weeks after application; for F: southern crabgrass, herbicidal effect: AAH 320 g/ha
Procedure, shortened: (§3)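 Foliar spray test: emulsion formulation diluted in water to a set application rate, sprayed onto 14-day-old plants raised in diluvial soil at 25° C to 30° C under glass. Both herbicidal effect and crop effect rated visually three weeks later.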

barnyard grass = experiment: Test Example 5: herbicidal effect by foliage application, plastic box (Table 20, symbol H); assay type: in vivo, barnyard grass (Echinochloa crus-galli); details: foliage application, three weeks after application; for H: barnyard grass, herbicidal effect: AAH 320 g/ha
Procedure, shortened: as §3

Italian ryegrass [6] = experiment: Test Example 5: herbicidal effect by foliage application, plastic box (Table 20, symbol K); assay type: in vivo, Italian ryegrass (Lolium multiflorum); details: foliage application, three weeks after application; for K: Italian ryegrass, herbicidal effect: AAH 320 g/ha
Procedure, shortened: as §3

redroot pigweed [7] = experiment: Test Example 5: herbicidal effect by foliage application, plastic box (Table 20, symbol N); assay type: in vivo, redroot pigweed (Amaranthus retroflexus); details: foliage application, three weeks after application; for N: redroot pigweed, herbicidal effect: AAH 320 g/ha
Procedure, shortened: as §3

lambsquarters = experiment: Test Example 5: herbicidal effect by foliage application, plastic box (Table 20, symbol O); assay type: in vivo, lambsquarters (Chenopodium album); details: foliage application, three weeks after application; for O: lambsquarters, herbicidal effect: AAH 320 g/ha
Procedure, shortened: as §3

persian speedwell [8] = experiment: Test Example 5: herbicidal effect by foliage application, plastic box (Table 20, symbol R); assay type: in vivo, Persian speedwell (Veronica persica); details: foliage application, three weeks after application; for R: persian speedwell, herbicidal effect: AAH 320 g/ha
Procedure, shortened: as §3

| SMILES | Herbicidal effect on A: late watergrass (grade 0-5) (late watergrass) | herbicidal effect rating, B: Japanese bulrush (Japanese bulrush) | herbicidal effect rating, C: oval-leafed pondweed (oval-leafed pondweed) | herbicidal effect rating, F: southern crabgrass (southern crabgrass [1]) | herbicidal effect rating, G: green foxtail (green foxtail) | herbicidal effect rating, J: blackgrass (blackgrass) | herbicidal effect rating, K: Italian ryegrass (Italian ryegrass [2]) | herbicidal effect rating, N: redroot pigweed (redroot pigweed [3]) | herbicidal effect rating, P: chickweed (chickweed) | herbicidal effect rating, R: persian speedwell (persian speedwell [4]) | F: southern crabgrass, herbicidal effect (southern crabgrass [5]) | H: barnyard grass, herbicidal effect (barnyard grass) | K: Italian ryegrass, herbicidal effect (Italian ryegrass [6]) | N: redroot pigweed, herbicidal effect (redroot pigweed [7]) | O: lambsquarters, herbicidal effect (lambsquarters) | R: persian speedwell, herbicidal effect (persian speedwell [8]) | other results |
| --- | --- | --- | --- | --- | --- | --- | --- | --- | --- | --- | --- | --- | --- | --- | --- | --- | --- |
| CCCC(=O)Oc1c(C)nn(C)c(=O)c1-c1c(-c2ccc(OC)c(OC)c2)sc2ccccc12 [1-073] | 5 (Herbicidal rate of 90% or more (almost completely withered)) | 5 (Herbicidal rate of 90% or more (almost completely withered)) | 5 (Herbicidal rate of 90% or more (almost completely withered)) | 5 (Herbicidal rate of 90% or more (almost completely withered)) | 5 (Herbicidal rate of 90% or more (almost completely withered)) | 2 (Herbicidal rate of 20% or more and less than 40%) | 5 (Herbicidal rate of 90% or more (almost completely withered)) | 4 (Herbicidal rate of 70% or more and less than 90%) | 4 (Herbicidal rate of 70% or more and less than 90%) | 5 (Herbicidal rate of 90% or more (almost completely withered)) | – | – | – | – | – | – | herbicidal effect grade, F: southern crabgrass (southern crabgrass [5]; 320 g/ha): 5 (Herbicidal rate of 90% or more (almost completely withered)); herbicidal effect grade, H: barnyard grass (barnyard grass; 320 g/ha): 5 (Herbicidal rate of 90% or more (almost completely withered)); herbicidal effect grade, K: Italian ryegrass (Italian ryegrass [6]; 320 g/ha): 5 (Herbicidal rate of 90% or more (almost completely withered)); herbicidal effect grade, N: redroot pigweed (redroot pigweed [7]; 320 g/ha): 5 (Herbicidal rate of 90% or more (almost completely withered)); herbicidal effect grade, O: lambsquarters (lambsquarters; 320 g/ha): 5 (Herbicidal rate of 90% or more (almost completely withered)); herbicidal effect grade, R: persian speedwell (persian speedwell [8]; 320 g/ha): 5 (Herbicidal rate of 90% or more (almost completely withered)) |
| CCCC(=O)Oc1c(C)nn(C)c(=O)c1-c1c(-c2ccc3c(c2)OCCO3)sc2ccccc12 [1-090] | 5 (Herbicidal rate of 90% or more (almost completely withered)) | 3 (Herbicidal rate of 40% or more and less than 70%) | 4 (Herbicidal rate of 70% or more and less than 90%) | 0 (Herbicidal rate of 5% or less (almost no effect)) | 3 (Herbicidal rate of 40% or more and less than 70%) | 0 (Herbicidal rate of 5% or less (almost no effect)) | 0 (Herbicidal rate of 5% or less (almost no effect)) | 2 (Herbicidal rate of 20% or more and less than 40%) | 4 (Herbicidal rate of 70% or more and less than 90%) | 5 (Herbicidal rate of 90% or more (almost completely withered)) | 3 (Herbicidal rate of 40% or more and less than 70%) | 4 (Herbicidal rate of 70% or more and less than 90%) | 3 (Herbicidal rate of 40% or more and less than 70%) | 0 (Herbicidal rate of 5% or less (almost no effect)) | 2 (Herbicidal rate of 20% or more and less than 40%) | 5 (Herbicidal rate of 90% or more (almost completely withered)) | – |
| COC(=O)Oc1c(C)nn(C)c(=O)c1-c1c(-c2ccc3c(c2)OCCO3)sc2ccccc12 [1-091] | 5 (Herbicidal rate of 90% or more (almost completely withered)) | 4 (Herbicidal rate of 70% or more and less than 90%) | 4 (Herbicidal rate of 70% or more and less than 90%) | 3 (Herbicidal rate of 40% or more and less than 70%) | 5 (Herbicidal rate of 90% or more (almost completely withered)) | 0 (Herbicidal rate of 5% or less (almost no effect)) | 0 (Herbicidal rate of 5% or less (almost no effect)) | 3 (Herbicidal rate of 40% or more and less than 70%) | 5 (Herbicidal rate of 90% or more (almost completely withered)) | 5 (Herbicidal rate of 90% or more (almost completely withered)) | 5 (Herbicidal rate of 90% or more (almost completely withered)) | 5 (Herbicidal rate of 90% or more (almost completely withered)) | 4 (Herbicidal rate of 70% or more and less than 90%) | 5 (Herbicidal rate of 90% or more (almost completely withered)) | 4 (Herbicidal rate of 70% or more and less than 90%) | 5 (Herbicidal rate of 90% or more (almost completely withered)) | – |
| Cc1nn(C)c(=O)c(-c2c(-c3ccc4c(c3)OCCO4)sc3ccccc23)c1OC(=O)SC(C)(C)C [1-092] | 5 (Herbicidal rate of 90% or more (almost completely withered)) | 1 (Herbicidal rate of 5% or more and less than 20%) | 0 (Herbicidal rate of 5% or less (almost no effect)) | 0 (Herbicidal rate of 5% or less (almost no effect)) | 0 (Herbicidal rate of 5% or less (almost no effect)) | 0 (Herbicidal rate of 5% or less (almost no effect)) | 0 (Herbicidal rate of 5% or less (almost no effect)) | 0 (Herbicidal rate of 5% or less (almost no effect)) | 0 (Herbicidal rate of 5% or less (almost no effect)) | 4 (Herbicidal rate of 70% or more and less than 90%) | 3 (Herbicidal rate of 40% or more and less than 70%) | 3 (Herbicidal rate of 40% or more and less than 70%) | 0 (Herbicidal rate of 5% or less (almost no effect)) | 0 (Herbicidal rate of 5% or less (almost no effect)) | 3 (Herbicidal rate of 40% or more and less than 70%) | 5 (Herbicidal rate of 90% or more (almost completely withered)) | – |
| Cc1nn(C)c(=O)c(-c2c(-c3ccc4c(c3)CCO4)sc3ccccc23)c1O [1-101] | 4 (Herbicidal rate of 70% or more and less than 90%) | 5 (Herbicidal rate of 90% or more (almost completely withered)) | 5 (Herbicidal rate of 90% or more (almost completely withered)) | 3 (Herbicidal rate of 40% or more and less than 70%) | 5 (Herbicidal rate of 90% or more (almost completely withered)) | 0 (Herbicidal rate of 5% or less (almost no effect)) | 4 (Herbicidal rate of 70% or more and less than 90%) | 4 (Herbicidal rate of 70% or more and less than 90%) | 5 (Herbicidal rate of 90% or more (almost completely withered)) | 5 (Herbicidal rate of 90% or more (almost completely withered)) | 5 (Herbicidal rate of 90% or more (almost completely withered)) | 4 (Herbicidal rate of 70% or more and less than 90%) | 4 (Herbicidal rate of 70% or more and less than 90%) | 4 (Herbicidal rate of 70% or more and less than 90%) | 4 (Herbicidal rate of 70% or more and less than 90%) | 5 (Herbicidal rate of 90% or more (almost completely withered)) | – |
